According to patent US9445596B2, “Small molecule compounds for the control of nematodes” (California Institute of Technology, priority 2011, dated 2016):
Entries after “also recorded” stand apart in the source; their conditions may differ.

Tests used:
[1] = test system: C. elegans hermaphrodites and males; test: Spot attraction assay; type: in vivo
Procedure: The spot attraction assays were conducted according to a previously reported method (Pungaliya et al., PNAS 106:7708-13 (2009); Srinivasan et al., Nature 454:1115-18 (2008), which are hereby incorporated by reference in their entirety). For both C. elegans hermaphrodites and males, 50-60 worms were harvested daily at the fourth larval stage (L4) and stored segregatedly by sex at 20° C. overnight, to be used as young adults the following day. For the competition experiments, two conditions were used: 120 nM ascr#3 and 10 nM icas#3 (Condition 1), or 12 μM ascr#3 and 1 μM icas#3 (Condition 2) in water containing 10% ethanol. Aliquots were stored at −20° C. in 20 μL tubes. 10% ethanol in water was used as control.
Attraction assays with hbas#3 were conducted as previously reported (Srinivasan et al., Nature 454:1115-18 (2008); Pungaliya et al., Proc. Natl. Acad. Sci. U.S.A. 106:7708-13 (2009), which are hereby incorporated by reference in their entirety). For the attraction assays, 50-60 hermaphrodite worms were harvested daily at the early fourth larval stage (L4) and stored at 20° C. overnight to be used as young adults the following day. Hbas#3 was dissolved in water containing 10% ethanol. Aliquots were stored at −20° C. in 20 μL tubes. 10% ethanol in water was used as control.

[2] = test system: C. elegans hermaphrodites; test: Quadrant chemotaxis assay; type: in vivo; conditions: for chemotaxis of hermaphrodites: 1 pM, all tested strains
Procedure: Chemotaxis to both non-indole and indole ascarosides was assessed on 10 cm four-quadrant petri plates (Wicks et al., Dev. Biol. 221:295-307 (2000), which is hereby incorporated by reference in its entirety). Each quadrant was separated from adjacent ones by plastic spacers (FIG. 1B). Pairs of opposite quadrants were filled with nematode growth medium (NGM) agar containing either indole ascarosides or non-indole ascarosides at different concentrations. Animals were washed gently in a S-basal buffer, placed in the center of a four-quadrant plate with ascarosides in alternating quadrants, and scored after 15 minutes and 30 minutes. A chemotaxis index was calculated as: (the number of animals on ascaroside quadrants minus the number of animals on buffer quadrants)/(total number of animals).
Chemotaxis to hbas#3 was assessed on 10 cm four-quadrant petri plates (Wicks et al., Dev. Biol. 221:295-307 (2000), which is hereby incorporated by reference in its entirety). Each quadrant was separated from adjacent ones by plastic spacers. Pairs of opposite quadrants were filled with nematode growth medium (NGM) agar containing different concentrations of hbas#3. Animals were washed gently in an S-basal buffer and placed in the center of a four-quadrant plate with ascarosides in alternating quadrants, and scored after 15 minutes and 30 minutes. A chemotaxis index was calculated as: (the number of animals on ascaroside quadrants minus the number of animals on buffer quadrants)/(total number of animals).

C. elegans = test: Aggregation assay; type: in vivo
Procedure: Aggregation behavior of worms was measured using assays reported in de Bono & Bargmann, Cell 94:679-89 (1998), which is hereby incorporated by reference in its entirety. Aggregation assays were conducted on standard NGM plates. Plates containing indole ascarosides were made by adding the indole ascaroside stock solution to the NGM media before they were poured onto the plates. These plates were dried at room temperature for 2 to 3 days. Control plates were treated similarly, except that ethanol solutions instead of icas solutions were added to the plates, corresponding to the amount of ethanol introduced via the icas solutions. Final ethanol concentrations of the plates were below 0.1% for all conditions. After drying, both control plates and plates containing indole ascarosides were seeded with 150 μl of an overnight culture of E. coli OP50 using a micropipette, and were allowed to dry for 2 days at room temperature. For “low worm density” experiments, 20 worms were placed onto the lawn and left at 20° C. for 3 hours. For “high worm density” experiments, approximately 120 worms were placed onto the bacterial lawn and left at 20° C. for 3 hours. Aggregation behavior was quantified as the number of animals that were in touch with two or more animals at greater than 50% of their body length.

[3] = test system: C. elegans hermaphrodites; test: Measurement of locomotory parameters (automated worm tracking); type: in vivo
Procedure: Reversal frequency and velocity were measured using an automated worm-tracking system (Pungaliya et al., PNAS 106:7708-13 (2009); Srinivasan et al., Nature 454:1115-18 (2008), which are hereby incorporated by reference in their entirety).

ASK neurons = test: Calcium imaging (G-CaMP), ASK neurons; type: in vivo, C. elegans; conditions: 1 pM to 1 μM
From the text: (§1) Transgenic lines that express the genetically encoded Ca^2+ sensor in ASK (kyEx2866) and AIA (kyEx2916) (Macosko et al., Nature 458:1171-75 (2009), which is hereby incorporated by reference in its entirety) were used for calcium imaging. Young adults or adult worms were inserted into an “Olfactory chip” microfluidic device (Chronis et al., Nat. Methods 4:727-31 (2007), which is hereby incorporated by reference in its entirety). Dilutions of icas#3 were done with S-basal buffer (with no cholesterol). As stock solutions of icas#3 contained small amounts of ethanol, equivalent amounts of ethanol were added to the S-basal control flow.
(§2) Imaging was conducted using an inverted Zeiss microscope equipped with an Andor camera. Exposure time for image acquisition was 300 milliseconds. Before imaging the ASK neuron, the worm was exposed to blue light for 3 minutes as ASK responds to the blue light itself. […] Movies were analyzed using custom-made Matlab scripts. The first peak of fluorescence immediately after exposure to buffer or icas#3 was chosen for calculating the average change in fluorescence upon exposure to either buffer or icas#3. The value for this maximum was then subtracted from the mean fluorescence during the 5 seconds before the delivery of icas#3/buffer (corresponding to the region between 5 to 10 seconds in FIG. 2D).

AIA interneurons = test: Calcium imaging (G-CaMP), AIA interneurons; type: in vivo, C. elegans
From the text: as §1, §2

ASI sensory neurons = conditions: McGrath et al., Nature 2011; cited from earlier work
[4] = social wild-type strains (RC301 and CB4856) and npr-1(ad609) hermaphrodites
[5] = ASK-ablated hermaphrodites on icas#3 plates

C[C@H](CCCC/C=C/C(=O)O)O[C@@H]1O[C@@H](C)[C@H](OC(=O)c2c[nH]c3ccccc23)C[C@H]1O [icas#3]
attraction in the spot attraction assay ([1]; 1 pmol, N2 hermaphrodites and him-5 males): attractive to both C. elegans sexes | attraction after ablation of both ASI and ASK neurons ([1]; ASI- and ASK-ablated hermaphrodites): did not result in a more significant loss of attraction compared to ASK ablation alone | attraction after ablation of the ASI neurons ([1]; ASI-ablated hermaphrodites): no significant effect | attraction of AIA-deficient worms ([1]; MEC-4 expressed in AIA interneuron): did not show any attraction | attraction of daf-22 hermaphrodites ([1]; daf-22 hermaphrodites): attracted; also recorded: as strongly as N2 worms | attraction after ablation of ASK sensory neurons ([1]; hermaphrodites lacking ASK neurons): near complete loss of attraction | attraction in the spot attraction assay ([1]; high concentrations, males and hermaphrodites): attracted both males and hermaphrodites | attraction of hermaphrodites ([1]; low concentrations, N2 hermaphrodites): strongly attractive to hermaphrodites | attraction of males ([1]; low concentrations, males): no longer attracted | attraction of social hermaphrodites [1, 4]: attracted; also recorded: strongly attracted | attraction after ablation of the RMG interneuron ([1]; wild-type (N2) and ncs-1::gfp hermaphrodites, RMG ablated): does not affect attraction; also recorded: did not affect icas#3 response | chemotaxis of hermaphrodites ([2]; after 15 minutes): attracted | chemotaxis of hermaphrodites ([2]; after 30 minutes): attracted | lowest concentration resulting in strong attraction of hermaphrodites (as low as) ([2]; both in the presence and absence of food): 1 pM | response of daf-22 hermaphrodites ([2]; daf-22 hermaphrodites): as strongly as N2 worms | attraction of social hermaphrodites [2, 4]: strongly attracted | increase in aggregation of N2 hermaphrodites (C. elegans; high worm density (120 worms per 5 cm plate)): ≤ 3 fold | average clump size (C. elegans; icas#3-mediated aggregation): 3-5 worms | concentrations at which active as hermaphrodite attractants and aggregation signals (C. elegans; in vivo): femtomolar to picomolar | concentrations that induce maximal aggregation (C. elegans; in vivo): 1 to 10 pM | lowest concentration with very strong increase in aggregation (as low as) (C. elegans; low worm density (20 worms per 5 cm plate), solitary and social hermaphrodites): 10 fM | increase in aggregation of N2 hermaphrodites (C. elegans; low worm density, 1 pM): ≤ 4 fold | aggregation of daf-22 hermaphrodites compared with N2 (C. elegans; low worm density, 1 pM and 10 pM): less aggregation than N2 worms at 1 pM icas#3 but not at 10 pM icas#3 | aggregation of hermaphrodites lacking the ASK neurons (C. elegans; low worm density, any of the tested concentrations): do not aggregate; also recorded: did not aggregate | aggregation of npr-1(ad609) hermaphrodites (C. elegans; low worm density, over the entire tested concentration range, without a drop off at higher concentrations): increased aggregation | aggregation at 1 nM (C. elegans; low worm density, social strain CB4856, 1 nM): not significantly different from the control | concentration of maximal aggregation (C. elegans; low worm density, social strain CB4856, bell-shaped response curve): 1 pM | aggregation of him-5 males (C. elegans; plates containing 100 fM or 100 pM): significantly increased | worm velocity ([3]; 1-10 pM): not significantly reduced | forward velocity of ASK-ablated hermaphrodites [3, 5]: do not display reduced forward velocity | reversal frequency of ASK-ablated hermaphrodites [3, 5]: does not increase; also recorded: neither increased reversal frequency | mean stopped duration ([3]; aggregation-inducing concentrations, N2 hermaphrodites): strongly increase mean stopped duration | Ca^2+ transients in ASK neurons (ASK neurons): no detection of Ca^2+ transients | G-CaMP fluorescence signals in AIA interneurons (AIA interneurons; 1 μM): induces G-CaMP fluorescence signals | G-CaMP fluorescence in the AIA neurons (AIA interneurons; in vivo): significantly increased G-CaMP fluorescence

C[C@@H]1O[C@@H](OCCC(=O)O)[C@H](O)C[C@H]1O [ascr#5]
calcium transients in the ASI sensory neurons (ASI sensory neurons): does not elicit calcium transients
